# Laboratory results published in US8809232B2, “Herbicidal compositions comprising 4-amino-3-chloro-5-fluoro-6-(4-chloro-2-fluoro-3-methoxyphenyl) pyridine-2-carboxylic acid or a derivative thereof and halosulfuron, pyrazosulfuron and esprocarb” (Dow Agrosciences LLC, priority 2012, dated 2014).
# Experiments:
# [1] = test system: BRAPP; assay: Post-emergence foliar-applied herbicidal mixtures, greenhouse, direct seeded rice weeds; assay type: in vivo
# Text: (§1) Seeds or nutlets of the desired test plant species were planted in a soil matrix prepared by mixing a loam or sandy loam soil (e.g., 28.6 percent silt, 18.8 percent clay, and 52.6 percent sand, with a pH of about 5.8 and an organic matter content of about 1.8 percent) and calcareous grit in an 80 to 20 ratio. The soil matrix was contained in plastic pots with a volume of 1 quart and a surface area of 83.6 square centimeters (cm^2). When required to ensure good germination and healthy plants, a fungicide treatment and/or other chemical or physical treatment was applied. The plants were grown for 8-22 days in a greenhouse with an approximate 14 hr photoperiod which was maintained at about 29° C. during the day and 26° C. during the night. Nutrients (Peters Excel® 15-5-15 5-Ca 2-Mg and iron chelate) were applied in the irrigation solution as needed and water was added on a regular basis. Supplemental lighting was provided with overhead metal halide 1000-Watt lamps as necessary. The plants were employed for testing when they reached the first through fourth true leaf stage.
# (§2) Treatments consisted of the acid or esters of 4-amino-3-chloro-5-fluoro-6-(4-chloro-2-fluoro-3-methoxy-phenyl)pyridine-2-carboxylic acid (Compound A), each formulated as an SC (suspension concentrate), and various herbicidal components alone and in combination. Forms of compound A were applied on an acid equivalent basis.
# (§3) Other herbicidal components were applied on an active ingredient basis and included the acetolactate synthase (ALS)-inhibiting herbicides halosulfuron-methyl formulated as Permit® 75 WDG, pyrazosulfuron-ethyl formulated as Agreen® WG or Sirius® G, and the VLCFA inhibiting herbicide esprocarb (technical grade material).
# (§4) Treatment requirements were calculated based upon the rates being tested, the concentration of active ingredient or acid equivalent in the formulation, and a 12 mL application volume at a rate of 187 L/ha.
# (§5) For treatments comprised of formulated compounds, measured amounts of compounds were placed individually in 25 mL glass vials and diluted in a volume of 1.25% (v/v) Agri-Dex® crop oil concentrated to obtain 12× stock solutions. […] Application solutions were prepared by adding an appropriate amount of each stock solution (e.g., 1 mL) and diluted to the appropriate final concentrations with the addition of 10 mL of an aqueous mixture of 1.25% (v/v) crop oil concentrate so that the final spray solutions contained 1.25+/−0.05% (v/v) crop oil concentrate.
# (§6) For treatments comprised of technical compounds, weighed amounts can be placed individually in 25 mL glass vials and dissolved in a volume of 97:3 v/v acetone/DMSO to obtain 12× stock solutions. […] Application solutions can be prepared by adding an appropriate amount of each stock solution (e.g., 1 mL) and diluted to the appropriate final concentrations with the addition of 10 mL of an aqueous mixture of 1.5% (v/v) crop oil concentrate so that the final spray solutions contain 1.25% (v/v) crop oil concentrate. When technical materials are used, the concentrated stock solutions can be added to the spray solutions so that the final acetone and DMSO concentrations of the application solutions are 16.2% and 0.5%, respectively.
# (§7) For treatments comprised of formulated and technical compounds, weighed amounts of the technical materials were placed individually in 25 mL glass vials and dissolved in a volume of 97:3 v/v acetone/DMSO to obtain 12× stock solutions, and measured amounts of the formulated compounds were placed individually in 25 mL glass vials and diluted in a volume of 1.5% (v/v) crop oil concentrate or water to obtain 12× stock solutions. […] Application solutions were prepared by adding an appropriate amount of each stock solution (e.g., 1 mL) and diluted to the appropriate final concentrations with the addition of an appropriate amount of an aqueous mixture of 1.5% (v/v) crop oil concentrate so that the final spray solutions contained 1.25% (v/v) crop oil concentrate. […]
# [2] = test system: DIGSA; assay: as above; assay type: in vivo, Digitaria sanguinalis (L.) Scop.
# Text: as §1, §2, §3, §4, §5, §6, §7
# [3] = test system: ECHCO; assay: as above; assay type: in vivo, Echinochloa colona (L.) Link
# Text: as §1, with “stage. […]” for “stage.”
# as §4
# For treatments comprised of formulated compounds, measured amounts of compounds were placed individually in 25 mL glass vials and diluted in a volume of 1.25% (v/v) Agri-Dex® crop oil concentrated to obtain 12× stock solutions. […]
# For treatments comprised of formulated and technical compounds, weighed amounts of the technical materials were placed individually in 25 mL glass vials and dissolved in a volume of 97:3 v/v acetone/DMSO to obtain 12× stock solutions, and measured amounts of the formulated compounds were placed individually in 25 mL glass vials and diluted in a volume of 1.5% (v/v) crop oil concentrate or water to obtain 12× stock solutions. […]
# [4] = test system: ECHOR; assay: In-water applied herbicidal mixtures, greenhouse, transplanted paddy rice weeds; assay type: in vivo, Echinochloa oryzoides (Ard.) Fritsch
# Method: (§8) Weed seeds or nutlets of the desired test plant species were planted in puddled soil (mud) prepared by mixing a shredded, non-sterilized mineral soil (50.5 percent silt, 25.5 percent clay, and 24 percent sand, with a pH of about 7.6 and an organic matter content of about 2.9 percent) and water at a 1:1 volumetric ratio. The prepared mud was dispensed in 365 mL aliquots into 16-ounce (oz.) non-perforated plastic pots with a surface area of 86.59 square centimeters (cm^2) leaving a headspace of 3 centimeters (cm) in each pot Mud was allowed to dry overnight prior to planting or transplanting. Rice seeds were planted in Sun Gro MetroMix® 306 planting mixture, which typically has a pH of 6.0 to 6.8 and an organic matter content of about 30 percent, in plastic plug trays. Seedlings at the second or third leaf stage of growth were transplanted into 840 mL of mud contained in 32-oz. non-perforated plastic pots with a surface area of 86.59 cm^2 4 days prior to herbicide application. The paddy was created by filling the headspace of the pots with 2.5 to 3 cm of water. When required to ensure good germination and healthy plants, a fungicide treatment and/or other chemical or physical treatment was applied. The plants were grown for 4-22 days in a greenhouse with an approximate 14 hr photoperiod which was maintained at about 29′C during the day and 26° C. during the night. Nutrients were added as Osmocote® (19:6:12, N:P:K^+ minor nutrients) at 2 g per 16-oz. pot and 4 g per 32-oz. pot. Water was added on a regular basis to maintain the paddy flood, and supplemental lighting was provided with overhead metal halide 1000-Watt lamps as necessary. The plants were employed for testing when they reached the first through fourth true leaf stage.
# as §2, with “(compound A)” for “(Compound A),”, “concentrate)” for “concentrate),”
# (§9) Other herbicidal components were applied on an active ingredient basis and included acetolactate synthase (ALS)-inhibiting herbicides formulated as Permit® 75 WDG, pyrazosulfuron-ethyl formulated as Agreen® WG or Sirius® G, and VLCFA inhibiting herbicide esprocarb (technical grade material).
# (§10) Treatment requirements for each compound or herbicidal component were calculated based upon the rates being tested, the concentration of active ingredient or acid equivalent in the formulation, an application volume of 2 mL per component per pot, and an application area of 86.59 cm^2 per pot.
# (§11) For formulated compounds, a measured amount was placed in an individual 100 or 200 mL glass vial and was dissolved in a volume of 1.25% (v/v) Agri-Dex® crop oil concentrate to obtain application solutions.
# (§12) For technical grade compounds, a weighed amount was placed in an individual 100 to 200 mL glass vial and was dissolved in a volume of acetone to obtain concentrated stock solutions. […] The concentrated stock solutions obtained were diluted with an equivalent volume of an aqueous mixture containing 2.5% (v/v) crop oil concentrate so that the final application solutions contained 1.25% (v/v) crop oil concentrate.
# (§13) Applications were made by injecting with a pipetter appropriate amounts of the application solutions, individually and sequentially, into the aqueous layer of the paddy. Control plants were treated in the same manner with the solvent blank. Applications were made so that all treated plant material received the same concentrations of acetone and crop oil concentrate.
# (§14) The treated plants and control plants were placed in a greenhouse as described above and water was added as needed to maintain a paddy flood. […]
# [5] = test system: SCPMA; assay: as above; assay type: in vivo
# Method: as §8
# as §2, with “(compound A)” for “(Compound A),”, “concentrate)” for “concentrate),”
# as §9, §10, §11, §12, §13, §14
# [6] = test system: ECHCG; assay: as above; assay type: in vivo, Echinochloa crus-galli (L.) Beauv.
# Method: as §8, with “Water was added on a regular basis to maintain the paddy flood, and supplemental lighting was provided with overhead metal halide 1000-Watt lamps as necessary. The plants were employed for testing when they reached the first through fourth true leaf stage.” left out
# as §10
# (§15) For formulated compounds, a measured amount was placed in an individual 100 or 200 mL glass vial and was dissolved in a volume of 1.25% (v/v) Agri-Dex® crop oil concentrate to obtain application solutions. […]
# [7] = test system: CYPRO; assay: as above; assay type: in vivo, Cyperus rotundus L.
# Method: as §8
# as §2, with “(compound A)” for “(Compound A),”, “concentrate)” for “concentrate),”
# as §9, §10, §11, §12, §13, §14
# [8] = test system: FIMMI; assay: as above; assay type: in vivo, Fimbristylis miliacea (L.) Vahl
# Method: as §8
# as §2, with “(compound A)” for “(Compound A),”, “concentrate)” for “concentrate),”
# as §9, §10, §11, §12
# Applications were made by injecting with a pipetter appropriate amounts of the application solutions, individually and sequentially, into the aqueous layer of the paddy. […]
# [9] = test system: SCPJU; assay: as above; assay type: in vivo, Schoenoplectus juncoides (Roxb.) Palla
# Method: as §8
# as §2, with “(compound A)” for “(Compound A),”, “concentrate)” for “concentrate),”, “basis. […]” for “basis.”
# as §10, §15
# [10] = test system: LEFCH; assay: Post-emergence foliar-applied herbicidal mixtures, greenhouse, direct seeded rice weeds; assay type: in vivo, Leptochloa chinensis (L.) Nees
# Text: as §1, §2, §3, §4, §5, §6, §7
compound,measurement,setting,value
"COc1c(Cl)ccc(-c2nc(C(=O)O)c(Cl)c(N)c2F)c1F [Compound A Acid, 4-amino-3-chloro-5-fluoro-6-(4-chloro-2-fluoro-3-methoxy-phenyl)pyridine-2-carboxylic acid]",Visual Weed Control (%) - 20 DAA BRAPP Obs,[1]; 4.38 g ae/ha,50%
same,Visual Weed Control (%) - 22 DAA BRAPP Obs,[1]; 4.38 g ae/ha,45%
same,Visual Weed Control (%) - 20 DAA DIGSA Obs,[2]; 21.2 g ae/ha,10%
same,Visual Weed Control (%) - 20 DAA DIGSA Obs,[2]; 42.4 g ae/ha,25%
same,Visual Weed Control (%) - 22 DAA ECHCO Obs,[3]; 4.38 g ae/ha,65%
same,Visual Weed Control (%) - 22 DAA ECHCO Obs,[3]; 8.75 g ae/ha,80%
same,Visual Weed Control (%) - 22 DAA ECHOR Obs,[4]; 8.75 g ae/ha,0%
same,Visual Weed Control (%) - 22 DAA ECHOR Obs,[4]; 17.5 g ae/ha,0%
same,Visual Weed Control (%) - 22 DAA ECHOR Obs,[4]; 35 g ae/ha,20%
same,Visual Weed Control (%) - 20 DAA ECHOR Obs,[4]; 42.4 g ae/ha,18%
same,Visual Weed Control (%) - 20 DAA ECHOR Obs,[4]; 84.8 g ae/ha,33%
same,Visual Weed Control (%) - 22 DAA SCPMA Obs,[5]; 8.75 g ae/ha,0%
same,Visual Weed Control (%) - 22 DAA SCPMA Obs,[5]; 17.5 g ae/ha,0%
same,Visual Weed Control (%) - 22 DAA SCPMA Obs,[5]; 35 g ae/ha,0%
same,Visual Weed Control (%) - 20 DAA SCPMA Obs,[5]; 42.4 g ae/ha,0%
same,Visual Weed Control (%) - 20 DAA SCPMA Obs,[5]; 84.8 g ae/ha,0%
same,Visual Weed Control (%) - 21 DAA ECHCG Obs,[6]; 8.75 g ae/ha,0%
same,Visual Weed Control (%) - 21 DAA ECHCG Obs,[6]; 17.5 g ae/ha,30%
same,Visual Weed Control (%) - 21 DAA CYPRO Obs,[7]; 8.75 g ae/ha,30%
same,Visual Weed Control (%) - 21 DAA CYPRO Obs,[7]; 17.5 g ae/ha,50%
same,Visual Weed Control (%) - 21 DAA CYPRO Obs,[7]; 35 g ae/ha,65%
same,Visual Weed Control (%) - 21 DAA FIMMI Obs,[8]; 8.75 g ae/ha,0%
same,Visual Weed Control (%) - 21 DAA FIMMI Obs,[8]; 17.5 g ae/ha,95%
same,Visual Weed Control (%) - 21 DAA SCPJU Obs,[9]; 8.75 g ae/ha,40%
same,Visual Weed Control (%) - 21 DAA SCPJU Obs,[9]; 17.5 g ae/ha,60%
"COC(=O)c1c(Cl)nn(C)c1S(=O)(=O)NC(=O)Nc1nc(OC)cc(OC)n1 [Halosulfuron-methyl, methyl 3-chloro-5-[[[[(4,6-dimethoxy-2-pyrimidinyl)amino]carbonyl]amino]sulfonyl]-1-methyl-1H-pyrazole-4-carboxylate, reference compound]",Visual Weed Control (%) - 20 DAA BRAPP Obs,[1]; 4.38 g ai/ha,0%
same,Visual Weed Control (%) - 20 DAA BRAPP Obs,[1]; 8.75 g ai/ha,0%
same,Visual Weed Control (%) - 20 DAA BRAPP Obs,[1]; 17.5 g ai/ha,0%
same,Visual Weed Control (%) - 20 DAA DIGSA Obs,[2]; 35 g ai/ha,10%
same,Visual Weed Control (%) - 20 DAA LEFCH Obs,[10]; 8.75 g ai/ha,0%
same,Visual Weed Control (%) - 20 DAA LEFCH Obs,[10]; 17.5 g ai/ha,0%
same,Visual Weed Control (%) - 20 DAA LEFCH Obs,[10]; 35 g ai/ha,5%
same,Visual Weed Control (%) - 21 DAA ECHOR Obs,[4]; 8.75 g ai/ha,0%
same,Visual Weed Control (%) - 21 DAA ECHOR Obs,[4]; 17.5 g ai/ha,0%
same,Visual Weed Control (%) - 20 DAA ECHOR Obs,[4]; 35 g ai/ha,0%
same,Visual Weed Control (%) - 20 DAA SCPMA Obs,[5]; 35 g ai/ha,65%
same,Visual Weed Control (%) - 21 DAA ECHCG Obs,[6]; 17.5 g ai/ha,0%
same,Visual Weed Control (%) - 21 DAA CYPRO Obs,[7]; 8.75 g ai/ha,60%
same,Visual Weed Control (%) - 21 DAA CYPRO Obs,[7]; 17.5 g ai/ha,100%
